Inhibition and Activity data for 1 compound are collected here from ChEMBL document CHEMBL5370584, “Reprogramming Energy Metabolism with Synthesized PDK Inhibitors Based on Dichloroacetate Derivatives and Targeted Delivery Systems for Enhanced Cancer Therapy” (J Med Chem, 2023).

Activity calls are given as the source filed them. The calls are words filed in the database; no cut-off is given here.

Series [1] concerns 4T1. The series can be described thus: Inhibition of PDK1 expression in mouse 4T1 cells at 4 uM incubated for 24 hrs by Western blot analysis. Type of series: functional, cell-based. (Immunoblotting shows a protein as a band on a membrane.)
Series [2] is described as follows: Toxicity in BALB/c mouse assessed as effect on kidney at 0.15 to 1.5 mg/kg measured upto 16 days. The format is organism-based. To be noted: in vivo, 384 h, dose 0.15-1.5 mg/kg, time < 16 day.
The nature of series [3]: Toxicity in BALB/c mouse assessed as effect on body weight at 0.15 to 1.5 mg/kg measured upto 16 days. To be noted: in vivo, 384 h, dose 0.15-1.5 mg/kg, time < 16 day. Type of series: organism-based.
In series [4] the test system is 4T1. The series can be described thus: Downregulation of HIF-1alpha expression in mouse 4T1 cells at 4 uM incubated for 24 hrs. Type of series: functional, cell-based.
The test system of series [5] is 4T1. The series can be described thus: Induction of apoptosis in mouse 4T1 cells assessed as increase in Bax expression at 4 uM incubated for 24 hrs. Type of series: functional, cell-based.
The test system of series [6] is 4T1. The series can be described thus: Downregulation of PHDC at Ser293 residues in mouse 4T1 cells at 4 uM incubated for 24 hrs by Western blot analysis. Type of series: functional, cell-based.
For series [7], the system named is COS-7. The series can be described thus: Effect on PDK4 expression in African monkey COS7 cells at 12 uM measured after 24 hrs. Type of series: functional, cell-based. The following applies: Chlorocebus aethiops.
Series [8] relates to 4T1. The series can be described thus: Upregulation of p53 level in mouse 4T1 cells at 4 uM incubated for 24 hrs. The format is functional, cell-based.
The test system of series [9] is 4T1. Put plainly: Induction of apoptosis in mouse 4T1 cells assessed as activation of cytochrome C release from mitochondria to cytosol at 1 to 4 uM incubated for 12 hrs. Type of series: functional, cell-based. The following applies: dose 1-4 µM.
The subject of series [10] is COS-7. The series can be described thus: Effect on PHDC expression in African monkey COS7 cells at high concentration measured after 6 hrs. Type of series: functional, cell-based. To be noted: Chlorocebus aethiops.
Series [11] in a line: Toxicity in BALB/c mouse assessed as effect on ALP level at 0.15 to 1.5 mg/kg measured upto 16 days. To be noted: in vivo, 384 h, dose 0.15-1.5 mg/kg, time < 16 day. Type of series: organism-based.
Series [12] deals with [Pyruvate dehydrogenase (acetyl-transferring)] kinase isozyme 1, mitochondrial (Mus musculus) (UniProt Q8BFP9). The series can be described thus: Inhibition of PDK1 transcription in mouse 4T1 cells at 4 uM incubated for 24 hrs by qPCR analysis. Type of series: cell-based. (Real-time PCR tracks product formation cycle by cycle.)
Series [13] relates to 4T1. The series can be described thus: Induction of mitochondrial membrane potential depolarization in mouse 4T1 cells at low dose measured after 12 hrs by JC-1 staining based analysis. The format is functional, cell-based.
Series [14] has as its system 4T1. The series can be described thus: Downregulation of c-myc expression in mouse 4T1 cells at 4 uM incubated for 24 hrs. Type of series: functional, cell-based.
Series [15] concerns 4T1. The series can be described thus: Induction of apoptosis in mouse 4T1 cells assessed as activation of caspase 3 at 2 uM incubated for 12 to 18 hrs. The following applies: time 12-18 hrs. Type of series: functional, cell-based.
Series [16] deals with 4T1. The series can be described thus: Inhibition of glycolysis in mouse 4T1 cell lysates assessed as reduction in lactate production at 1 to 4 uM measured after 6 to 12 hrs. Type of series: functional, cell-based. To be noted: dose 1-4 µM, time 6-12 hrs.
The nature of series [17]: Toxicity in BALB/c mouse assessed as effect on ALT level at 0.15 to 1.5 mg/kg measured upto 16 days. The format is organism-based. The following applies: in vivo, 384 h, dose 0.15-1.5 mg/kg, time < 16 day.
Series [18] relates to 4T1. The series can be described thus: Induction of apoptosis in mouse 4T1 cells assessed as reduction in Bcl-2 expression at 4 uM incubated for 24 hrs. The format is functional, cell-based.

[Pyruvate dehydrogenase (acetyl-transferring)] kinase isozyme 1, mitochondrial (Mus musculus), sequence (Q8BFP9 whole entry): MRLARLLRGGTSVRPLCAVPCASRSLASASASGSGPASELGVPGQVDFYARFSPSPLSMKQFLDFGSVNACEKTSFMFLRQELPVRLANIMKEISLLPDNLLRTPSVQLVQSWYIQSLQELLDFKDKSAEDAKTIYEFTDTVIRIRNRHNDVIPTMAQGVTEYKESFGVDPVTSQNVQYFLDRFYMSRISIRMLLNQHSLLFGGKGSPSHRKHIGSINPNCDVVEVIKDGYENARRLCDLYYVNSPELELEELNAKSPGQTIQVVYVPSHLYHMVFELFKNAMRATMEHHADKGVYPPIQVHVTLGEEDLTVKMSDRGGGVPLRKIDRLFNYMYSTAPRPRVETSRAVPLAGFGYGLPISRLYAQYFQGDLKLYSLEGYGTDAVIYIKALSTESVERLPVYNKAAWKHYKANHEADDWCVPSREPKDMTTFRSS

`O=C(CCCCCNC(=O)C(Cl)Cl)Nc1ccc([As]2SCCCS2)cc1`: the inhibition result (in the series on 4T1 [1]; in series [12]; in the series on 4T1 [16]) was “Active” throughout. For the same compound, the Activity result in series [2], in [3], in series [11] and in series [17] was “Non-Toxic” in each case. In addition, the outcome in the series on 4T1 [4], with 4T1 [5], with 4T1 [6], in the series on 4T1 [8], in the series on 4T1 [9] and in the series on 4T1 [14] was Active. In addition, the outcome in the series with 4T1 [15] and in the series with 4T1 [18] was Active. Also, the outcome in the series on COS-7 [7], in the series with COS-7 [10] and in the series on 4T1 [13] was inactive.
